The values that follow are results of earlier work, collected in patent publication US9399756B2, “Functionalized fullerenes as a biomass stimulant and a life extension agent” (UNIVERSITY OF FLORIDA RESEARCH FOUNDATION, INC., priority 2010, dated 2016).

Data set [1] has as its system mice. As to conditions: Quick et al., Neurobiology of Aging 2008.
Data set [2] has as its system mice. As to conditions: injected; Zhou et al. 2009.

As to e,e,e-C60(C(CO2H)2)3, the lifespan of mice entry with mice [1] is given as “may extend the lifespan of mice”.

Take (H23C11CO2)2CC60C(CO2CH2CO2H)2: in the data set with mice [2], the “hair growth in mice” value is listed as “may stimulate hair growth in mice”.
